The target in the assay is Caspase-3 (Homo sapiens) (UniProt P42574). The experiment in a line: caspase-3 inhibitors as false-positive filter, SAR follow-up, counter-screen for UBC13 polyubiquitin inhibitor project, biochemical, luminescence, Caspase-Glo 3/7 (AID 504680). The note with it: recombinant caspase-3, Caspase-Glo luminescence, 60 min. A general note: Counterscreens check selectivity or assay interference.

The source made the active and inactive calls.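 How the source made its calls: active means IC50 below 100 µM in the TR-FRET assay, unless also active in the caspase-3 counter assay; inactive means the rest, including compounds also active in caspase-3.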 Bounds are passed on as bounds.

Chain of Caspase-3 (Homo sapiens) (P42574 whole entry, looked up): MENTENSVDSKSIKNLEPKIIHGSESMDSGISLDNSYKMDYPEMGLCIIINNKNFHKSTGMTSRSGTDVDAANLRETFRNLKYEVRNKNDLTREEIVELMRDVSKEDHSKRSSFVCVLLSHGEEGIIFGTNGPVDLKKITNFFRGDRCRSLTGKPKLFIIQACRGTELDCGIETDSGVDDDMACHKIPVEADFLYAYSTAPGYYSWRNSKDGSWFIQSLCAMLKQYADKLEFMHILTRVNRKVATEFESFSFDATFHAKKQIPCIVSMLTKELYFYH

As usually defined, the IC50 is the concentration that inhibits the measured activity by half. Regarding `CCN(Cc1ccccc1)S(=O)(=O)c1ccc(C(=O)N(CCCN(C)C)c2nc3cc4c(cc3s2)OCO4)cc1`, the IC50 is > 100 µM (inactive).

Consider `COC(=O)C1=C(NC(=O)CCCCCN2C(=O)c3ccccc3C2=O)SC2CCCC12` (centres undefined), for which the IC50 was > 100 µM (inactive).

As to `Cc1ccc2nc(N(CCCN(C)C)C(=O)c3ccc4c(c3)CCCC4)sc2c1`, the IC50 is > 100 µM (inactive).

For the compound `O=C1c2cccc3cccc(c23)C(=O)N1CCN1CCN(CC(O)COc2ccc(Cl)cc2)CC1` (centres undefined), the IC50 was > 100 µM (inactive).

For the compound `Cc1cc(C)cc(OCCNC(=O)CCCCCN2C(=O)c3ccccc3C2=O)c1`, the IC50 was > 100 µM (inactive).

In the case of `CCN(Cc1ccccc1)S(=O)(=O)c1ccc(C(=O)N(CCCN(C)C)c2nc3cc4c(cc3s2)OCCO4)cc1`, the IC50 was > 100 µM (inactive).

For the compound `COc1cccc(OCC(O)CN2CCN(CCN3C(=O)c4cccc5cccc(c45)C3=O)CC2)c1` (centres undefined), the IC50 was > 100 µM (inactive).

Consider `CCOc1ccc(NC(=O)Cn2c(=O)n(CCCC(=O)NC3CCN(Cc4ccccc4)CC3)c(=O)c3ccccc32)cc1`, for which the IC50 was > 100 µM (inactive).

Take `O=C(CCCCn1c(=O)c2ccccc2n(Cc2ccccc2F)c1=O)NC1CCN(Cc2ccccc2)CC1`: the IC50 was > 100 µM (inactive).

In the case of `COc1ccc2sc(N(CCCN(C)C)C(=O)c3ccc(S(=O)(=O)N4CCc5ccccc5C4)cc3)nc2c1`, the IC50 is > 100 µM (inactive).

As for `CCc1ccc(OCC(O)CN2CCC(CN3C(=O)c4cccc5cccc(c45)C3=O)CC2)cc1` (centres undefined), the IC50 was > 100 µM (inactive).

As for `O=C(CCCCCN1C(=O)c2ccccc2C1=O)NCc1ccccn1`, the IC50 is > 100 µM (inactive).

With `COc1ccc(COCC(O)CN2CCC(CN3C(=O)c4cccc5cccc(c45)C3=O)CC2)cc1OC` (centres undefined), the IC50 was > 100 µM (inactive).

Consider `COCCOC(=O)c1ccc(NC(=O)CCCCCN2C(=O)c3ccccc3C2=O)cc1`, for which the IC50 is > 100 µM (inactive).

Consider `CCOc1ccc2nc(N(CCCN(C)C)C(=O)c3ccc(S(=O)(=O)N4CCc5ccccc5C4)cc3)sc2c1`, for which the IC50 was > 100 µM (inactive).

`CN(C)CCCN(C(=O)c1ccc(C(=O)c2ccccc2)cc1)c1nc2cc3c(cc2s1)OCO3`: the IC50 was > 100 µM (inactive).

As to `COC(=O)c1ccc(OCC(O)CN2CCN(CCN3C(=O)c4cccc5cccc(c45)C3=O)CC2)cc1` (centres undefined), the IC50 was > 100 µM (inactive).

Take `CC(NC(=O)CCCCCN1C(=O)c2ccccc2C1=O)c1nc(-c2ccccc2)no1` (centres undefined): the IC50 was > 100 µM (inactive).

As for `CC(=O)c1ccc(OCC(O)CN2CCN(CCN3C(=O)c4cccc5cccc(c45)C3=O)CC2)cc1` (centres undefined), the IC50 is > 100 µM (inactive).

Consider `Cc1cc(NC(=O)Cn2c(=O)n(CCCCC(=O)NC3CCN(Cc4ccccc4)CC3)c(=O)c3ccccc32)n[nH]1`, for which the IC50 is > 100 µM (inactive).

Turning to `O=C(CCCCCN1C(=O)c2cccc3cccc(c23)C1=O)NCCO`, the IC50 was > 100 µM (inactive).

Turning to `O=C(NCC1CCN(Cc2cccc(Cl)c2)CC1)C1CCCN(c2ncnc3c2nc2n3CCCCC2)C1` (centres undefined), the IC50 was > 100 µM (inactive).

On to `CC(=O)Nc1ccc(OCC(O)CN2CCN(CCN3C(=O)c4cccc5cccc(c45)C3=O)CC2)cc1` (centres undefined), for which the IC50 was > 100 µM (inactive).

As to `O=C1c2cccc3cccc(c23)C(=O)N1CC1CCN(CC(O)COCc2ccc3c(c2)OCO3)CC1` (centres undefined), the IC50 is > 100 µM (inactive).

For `O=C1c2cccc3cccc(c23)N1Cc1ccc(F)cc1`, the IC50 was > 100 µM (inactive).

In the case of `O=C1c2cccc3cccc(c23)C(=O)N1CCN1CCN(CC(O)COc2ccc3c(c2)OCO3)CC1` (centres undefined), the IC50 was > 100 µM (inactive).

As for `CC1(C)Cc2c(sc(NC(=O)COc3ccc(Cl)cc3Cl)c2C(N)=O)C(C)(C)N1`, the IC50 was > 100 µM (inactive).

With `COc1ccccc1NC(=S)NC(=O)CCCCCN1C(=O)c2ccccc2C1=O`, the IC50 was > 100 µM (inactive).

Turning to `O=C1c2cccc3cccc(c23)C(=O)N1CC1CCN(CC(O)COc2ccc3ccccc3c2)CC1` (centres undefined), the IC50 is > 100 µM (inactive).

Take `O=C(CCCn1c(=O)c2ccccc2n(Cc2cccc(F)c2)c1=O)NC1CCN(Cc2ccccc2)CC1`: the IC50 is > 100 µM (inactive).

Take `CNCc1cc(Br)c(OCC(=O)Nc2ccccc2OC)c(OC)c1`: the IC50 is > 100 µM (inactive).

As to `Cc1ccccc1NC(=S)NC(=O)CCCCCN1C(=O)c2ccccc2C1=O`, the IC50 is > 100 µM (inactive).

In the case of `Cc1cc(NS(=O)(=O)c2ccc(NC(=O)CCCCCN3C(=O)c4ccccc4C3=O)cc2)nc(C)n1`, the IC50 is > 100 µM (inactive).

With `O=C(C1CCN(c2ncnc3c2nc2n3CCCCC2)CC1)N1CCOCC1`, the IC50 was > 100 µM (inactive).

In the case of `COc1ccc(C(=O)Nn2c(C)nc3ccccc3c2=O)cc1`, the IC50 is > 100 µM (inactive).

As for `CC1CCCCN1C(=O)C1CCN(c2ncnc3c2nc2n3CCCCC2)CC1` (centres undefined), the IC50 was > 100 µM (inactive).

With `CC(C)(C)c1ccc(OCC(O)CN2CCN(CCN3C(=O)c4cccc5cccc(c45)C3=O)CC2)cc1` (centres undefined), the IC50 was > 100 µM (inactive).

Regarding `O=C(C1CCN(c2ncnc3c2nc2n3CCCCC2)CC1)N1CCN(c2ccccc2)CC1`, the IC50 was > 100 µM (inactive).

Regarding `O=C(CCCn1c(=O)c2ccccc2n(Cc2cccc([N+](=O)[O-])c2)c1=O)NC1CCN(Cc2ccccc2)CC1`, the IC50 is > 100 µM (inactive).

As for `COc1cccc2sc(N(CCCN(C)C)C(=O)c3ccc(S(=O)(=O)N4CCc5ccccc5C4)cc3)nc12`, the IC50 is > 100 µM (inactive).

As for `COc1cc2nc(N(CCCN(C)C)C(=O)c3ccc(S(=O)(=O)N4CCc5ccccc5C4)cc3)sc2cc1OC`, the IC50 was > 100 µM (inactive).

In the case of `O=C(NCC1CCN(Cc2ccc(F)cc2)CC1)C1CCCN(c2ncnc3c2nc2n3CCCCC2)C1` (centres undefined), the IC50 was > 100 µM (inactive).

Consider `COc1ccc(CCNC(=O)CCCCCN2C(=O)c3ccccc3C2=O)cc1OC`, for which the IC50 was > 100 µM (inactive).

As for `Cc1c(NC(=O)CCCN2C(=O)c3cccc4cccc(c34)C2=O)c(=O)n(-c2ccccc2)n1C`, the IC50 was > 100 µM (inactive).

Consider `CN(C)CCCN(C(=O)c1ccc(C(=O)c2ccccc2)cc1)c1nc2cc3c(cc2s1)OCCO3`, for which the IC50 is > 100 µM (inactive).

With `O=C(CCCCCN1C(=O)c2cccc3cccc(c23)C1=O)NCc1cccnc1`, the IC50 was > 100 µM (inactive).

As for `Cc1cc(C)c2sc(N(CCCN(C)C)C(=O)c3ccc(S(=O)(=O)N(C)Cc4ccccc4)cc3)nc2c1`, the IC50 was > 100 µM (inactive).

For the compound `O=C(C1COc2ccccc2O1)N1CCN(CCN2C(=O)c3cccc4cccc(c34)C2=O)CC1` (centres undefined), the IC50 was > 100 µM (inactive).

On to `CCC1CCCCN1CCCNC(=O)C1CCN(c2ncnc3c2nc2n3CCCCC2)CC1` (centres undefined), for which the IC50 was > 100 µM (inactive).

Consider `COc1cc(/C=C/c2cc[n+](C)cc2)ccc1OCC(=O)Nc1ccc(Cl)c(Cl)c1`, for which the IC50 is > 100 µM (inactive).

As for `O=C(CCCCCN1C(=O)c2ccccc2C1=O)N1CCN(c2ccc([N+](=O)[O-])cc2)CC1`, the IC50 was > 100 µM (inactive).

Turning to `COc1ccc(-c2oc3ncnc(N)c3c2-c2ccccc2)cc1`, the IC50 is > 100 µM (inactive).

For `CN(C)CCCN(C(=O)c1ccc(S(=O)(=O)N2CCc3ccccc3C2)cc1)c1nc2ccc(F)cc2s1`, the IC50 is > 100 µM (inactive).

For `COc1ccc(CCNC(=O)CCCCCN2C(=O)c3ccccc3C2=O)cc1`, the IC50 was > 100 µM (inactive).

Consider `Cc1nc2ccccc2c(=O)n1NC(=O)c1ccc(OC(F)F)cc1`, for which the IC50 is > 100 µM (inactive).

`O=C1c2cccc3cccc(c23)C(=O)N1CCN1CCN(CC(O)COc2ccccc2)CC1` (centres undefined): the IC50 is > 100 µM (inactive).

As for `CCc1ccc2nc(N(CCCN(C)C)C(=O)c3ccc(S(=O)(=O)N4CCc5ccccc5C4)cc3)sc2c1`, the IC50 is > 100 µM (inactive).

Turning to `O=C(CCCn1c(=O)c2ccccc2n(Cc2ccccc2F)c1=O)NC1CCN(Cc2ccccc2)CC1`, the IC50 is > 100 µM (inactive).

With `CN(C)CCCN(C(=O)c1ccc(S(=O)(=O)N(C)Cc2ccccc2)cc1)c1nc2cc3c(cc2s1)OCO3`, the IC50 was > 100 µM (inactive).

In the case of `CC1CCCC(C)N1CCCNC(=O)C1CCCN(c2ncnc3c2nc2n3CCCCC2)C1` (centres undefined), the IC50 is > 100 µM (inactive).

As for `CC(NC(=O)CCCCCN1C(=O)c2cccc([N+](=O)[O-])c2C1=O)c1ccccc1` (centres undefined), the IC50 is > 100 µM (inactive).

Turning to `CN(C)CCCN(C(=O)c1ccc2c(c1)CCCC2)c1nc2ccc(Cl)cc2s1`, the IC50 was > 100 µM (inactive).

Consider `Cc1cc(C)c2sc(N(CCCN(C)C)C(=O)c3ccc(S(=O)(=O)N(C)C4CCCCC4)cc3)nc2c1`, for which the IC50 is > 100 µM (inactive).

For `CC1CN(S(=O)(=O)c2ccc(NC(=O)CCCCCN3C(=O)c4ccccc4C3=O)cc2)CC(C)O1` (centres undefined), the IC50 is > 100 µM (inactive).

As to `O=C(Nc1ccc(F)c(Cl)c1)C1CCN(c2ncnc3c2nc2n3CCCCC2)CC1`, the IC50 was > 100 µM (inactive).

As for `O=C(NCCCN1CCN(c2ccc(F)cc2)CC1)C1CCCN(c2ncnc3c2nc2n3CCCCC2)C1` (centres undefined), the IC50 was > 100 µM (inactive).

As to `N#Cc1ccccc1Cn1c(=O)n(CCCC(=O)NC2CCN(Cc3ccccc3)CC2)c(=O)c2ccccc21`, the IC50 is > 100 µM (inactive).

Turning to `COc1ccc(OC)c2sc(N(CCCN(C)C)C(=O)c3ccc(S(=O)(=O)N4CCc5ccccc5C4)cc3)nc12`, the IC50 was > 100 µM (inactive).

For `CN1CCN(CCCNC(=O)c2ccc(/C=C3\Oc4ccccc4N(Cc4ccc(Cl)cc4)C3=O)cc2)CC1`, the IC50 was > 100 µM (inactive).

Turning to `Cc1cccc(OCC(O)CN2CCN(CCN3C(=O)c4cccc5cccc(c45)C3=O)CC2)c1C` (centres undefined), the IC50 is > 100 µM (inactive).

Consider `O=C(CCCn1c(=O)c2ccccc2n(Cc2ccc(Cl)cc2)c1=O)NC1CCN(Cc2ccccc2)CC1`, for which the IC50 was > 100 µM (inactive).

Turning to `CN(C)CCCN(C(=O)c1ccc(S(=O)(=O)N2CCCCCC2)cc1)c1nc2cc3c(cc2s1)OCCO3`, the IC50 is > 100 µM (inactive).

Consider `O=C(NCCCN1CCCCC1)C1CCN(c2ncnc3c2nc2n3CCCCC2)CC1`, for which the IC50 was > 100 µM (inactive).

In the case of `CN(CCNC(=O)C1CCN(c2ncnc3c2nc2n3CCCCC2)CC1)Cc1ccccc1`, the IC50 was > 100 µM (inactive).

Values taken from PubChem BioAssay AID504680 (Sanford-Burnham Center for Chemical Genomics, 2011).
